Test results reported in PubChem BioAssay (NCI).
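Results reflect a 48-hour exposure of cells in 96-well plates to compound at five concentrations. At the GI50, growth is halved. Definition used: TGI = concentration required for complete inhibition of growth.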

Columns and labels:
Assay in all cases: DTP human tumour cell line panel, 48 h
[1] = test system: SK-MEL-2 melanoma
[2] = test system: ACHN renal
[3] = test system: SNB-19 CNS
[4] = test system: BT-549 breast
[5] = test system: RXF 393 renal
[6] = test system: OVCAR-3 ovarian
[7] = test system: UACC-257 melanoma
[8] = test system: MDA-MB-435
[9] = test system: TK-10 renal
[10] = test system: NCI-H23 lung
[11] = test system: CAKI-1 renal
[12] = test system: HCT-116 colon
[13] = test system: K-562 leukemia
[14] = test system: UO-31 renal
[15] = test system: HL-60(TB) leukemia
[16] = test system: M14 melanoma
[17] = test system: CCRF-CEM leukemia
[18] = test system: A498 renal
[19] = test system: MCF7 breast
[20] = test system: MDA-MB-231 breast
[21] = test system: RPMI-8226 leukemia
[22] = test system: HT29 colon
[23] = test system: SN12C renal
[24] = test system: PC-3 prostate
[25] = test system: SF-539 CNS
[26] = test system: MALME-3M melanoma
[27] = test system: SR leukemia
[28] = test system: HOP-92 NSCLC
[29] = test system: IGROV1 ovarian
[30] = test system: EKVX NSCLC
[31] = test system: UACC-62 melanoma
[32] = test system: U251 CNS
[33] = test system: HOP-62 NSCLC
[34] = test system: T-47D breast
[35] = test system: SF-268 CNS
[36] = test system: COLO 205 colon
[37] = test system: HS 578T breast
[38] = test system: HCC-2998 colon
[39] = test system: OVCAR-5 ovarian
[40] = test system: 786-0 renal
[41] = test system: SNB-75 CNS
[42] = test system: OVCAR-4 ovarian
[43] = test system: SK-OV-3 ovarian
[44] = test system: NCI-H522 lung
[45] = test system: NCI/ADR-RES ovarian
[46] = test system: NCI-H460 lung
[47] = test system: NCI-H226 lung
[48] = test system: DU-145 prostate
[49] = test system: SW-620 colon
[50] = test system: MOLT-4 leukemia
[51] = test system: SK-MEL-5 melanoma
[52] = test system: HCT-15 colon
[53] = test system: LOX IMVI melanoma
[54] = test system: OVCAR-8 ovarian
[55] = test system: SK-MEL-28 melanoma
[56] = test system: KM12 colon
[57] = test system: SF-295 CNS
[58] = test system: A549 NSCLC

Cc1ccc2c(n1)C(=O)C(Cl)=C(Nc1ccc(C#N)cc1)C2=O
GI50 [1]: 11.6 µM | TGI [1]: 24.6 µM | GI50 [2]: 1.81 µM | TGI [2]: 3.3 µM | GI50 [3]: 15.7 µM | TGI [3]: 39.8 µM | GI50 [4]: 2.8 µM | TGI [4]: 12 µM | GI50 [5]: 1.45 µM | TGI [5]: 2.79 µM | GI50 [6]: 1.84 µM | TGI [6]: 3.51 µM | GI50 [7]: 1.64 µM | TGI [7]: 3.17 µM | GI50 [8]: 6.99 µM | TGI [8]: 22.7 µM | GI50 [9]: 1.83 µM | TGI [9]: 3.27 µM | GI50 [10]: 1.84 µM | TGI [10]: 4.58 µM | GI50 [11]: 1.7 µM | TGI [11]: 3.31 µM | GI50 [12]: 1.83 µM | TGI [12]: 3.78 µM | GI50 [13]: 0.351 µM | TGI [13]: 1.87 µM | GI50 [14]: 1.54 µM | TGI [14]: 2.97 µM | GI50 [15]: 1.08 µM | TGI [15]: 3.05 µM | GI50 [16]: 6.12 µM | TGI [16]: 21.9 µM | GI50 [17]: 0.358 µM | TGI [17]: 2.2 µM | GI50 [18]: 16.3 µM | TGI [18]: > 100 µM | GI50 [19]: 1.9 µM | TGI [19]: 4.62 µM | GI50 [20]: 5.59 µM | TGI [20]: 25.8 µM | GI50 [21]: 2.19 µM | TGI [21]: 5.74 µM | GI50 [22]: 3.06 µM | TGI [22]: 10.6 µM | GI50 [23]: 5.68 µM | TGI [23]: 25.4 µM | GI50 [24]: 10 µM | TGI [24]: 25.1 µM | GI50 [25]: 10.2 µM | TGI [25]: 23 µM | GI50 [26]: 1.74 µM | TGI [26]: 3.36 µM | GI50 [27]: 0.375 µM | TGI [27]: 2.25 µM | GI50 [28]: 1.71 µM | TGI [28]: 3.41 µM | GI50 [29]: 10.7 µM | TGI [29]: 24.7 µM | GI50 [30]: 2.19 µM | TGI [30]: 5.59 µM | GI50 [31]: 10.1 µM | TGI [31]: 25.9 µM | GI50 [32]: 13 µM | TGI [32]: 28.7 µM | GI50 [33]: 17.9 µM | TGI [33]: 50.7 µM | GI50 [34]: 1.87 µM | TGI [34]: 4.79 µM | GI50 [35]: 8.36 µM | TGI [35]: 25.6 µM | GI50 [36]: 1.66 µM | TGI [36]: 3.51 µM | GI50 [37]: 14.6 µM | TGI [37]: 56.1 µM | GI50 [38]: 3.83 µM | TGI [38]: 16.1 µM | GI50 [39]: 17.7 µM | TGI [39]: 34.8 µM | GI50 [40]: 1.74 µM | TGI [40]: 3.24 µM | GI50 [41]: 6.8 µM | TGI [41]: 34.5 µM | GI50 [42]: 1.59 µM | TGI [42]: 3.08 µM | GI50 [43]: 11.7 µM | TGI [43]: 27.7 µM | GI50 [44]: 1.75 µM | TGI [44]: 3.75 µM | GI50 [45]: 3.55 µM | TGI [45]: 17.7 µM | GI50 [46]: 30.2 µM | TGI [46]: > 100 µM | GI50 [47]: 4.36 µM | TGI [47]: 17.6 µM | GI50 [48]: 2.13 µM | TGI [48]: 4.48 µM | GI50 [49]: 1.76 µM | TGI [49]: 3.87 µM | GI50 [50]: 0.47 µM | TGI [50]: 2.56 µM | GI50 [51]: 4.75 µM | TGI [51]: 17.3 µM | GI50 [52]: 1.74 µM | TGI [52]: 3.66 µM | GI50 [53]: 1.53 µM | TGI [53]: 3.46 µM | GI50 [54]: 10.1 µM | TGI [54]: 28.2 µM | GI50 [55]: 2.46 µM | TGI [55]: 5.74 µM | GI50 [56]: 19.9 µM | TGI [56]: > 100 µM | GI50 [57]: 17.6 µM | TGI [57]: 39.2 µM | GI50 [58]: 35.6 µM | TGI [58]: > 100 µM
